Experiments:
Type in all cases: cell-based
P2X2 F303L = target: T1, P2X2 F303L (Homo sapiens, UniProt Q9UBL9, F303L); experiment: Site-saturation screen of ligand-binding domain with ATP, F303L; conditions: 500 μM ATP, ± sd
T1 construct: expressed in transfected cells; host or cells: Saccharomyces cerevisiae BY4741 derivative, genome-integrated, galactose-inducible
From the text: (§1) The yeast P2X2 screening platform poses an opportunity to probe the structure-function of the ligand-binding domain in detail. The conserved P2X “NFR” motif at residues 300 to 302 is directly involved in bonding to the ATP triphosphate moiety ([41]), so we mutagenized residues at or near this motif (298–304), ultimately covering 133 variants (7 sites, 19 residues each). […] We compared our results to phylogenetic data based on a multiple sequence alignment (MSA) from a curated set of 419 related P2X homologs (Figs. 3B, and S5; Table S1).
(§2) Figure 3 Structure-function analysis of the ligand binding domain.A, heat map summarizing the screening data of ATP with seven site-saturation libraries surrounding the NFR-motif. B, sequence-logo plot of the mutagenized residues and percent identity scores as determined from MSA. C, homology model of P2X2 colored by sequence conservation as calculated from a multiple sequence alignment of 419 related P2X genes. Conservation is scored on a log scale where maroon is more conserved and blue is less conserved. D, ATP in the ligand-binding pocket of P2X2. […]
(§3) GCaMP assays were performed as follows. […] Cells were loaded onto a black, clear bottom microplate and imaged on a FlexStation3 plate reader. […] Fluorescence was measured with an excitation at 485 nm, and emission 525 nm. […] For strains with mScarlet, fluorescence was read with excitation 570 nm/emission 610 nm. […]

P2X2 F303M = target: T2, P2X2 F303M (Homo sapiens, UniProt Q9UBL9, F303M); experiment: Site-saturation screen of ligand-binding domain with ATP, F303M; conditions: 500 μM ATP, ± sd
T2 construct: expressed in transfected cells; host or cells: Saccharomyces cerevisiae BY4741 derivative, genome-integrated, galactose-inducible
T2 sequence (Q9UBL9 whole entry F303M, the tested form may be a part): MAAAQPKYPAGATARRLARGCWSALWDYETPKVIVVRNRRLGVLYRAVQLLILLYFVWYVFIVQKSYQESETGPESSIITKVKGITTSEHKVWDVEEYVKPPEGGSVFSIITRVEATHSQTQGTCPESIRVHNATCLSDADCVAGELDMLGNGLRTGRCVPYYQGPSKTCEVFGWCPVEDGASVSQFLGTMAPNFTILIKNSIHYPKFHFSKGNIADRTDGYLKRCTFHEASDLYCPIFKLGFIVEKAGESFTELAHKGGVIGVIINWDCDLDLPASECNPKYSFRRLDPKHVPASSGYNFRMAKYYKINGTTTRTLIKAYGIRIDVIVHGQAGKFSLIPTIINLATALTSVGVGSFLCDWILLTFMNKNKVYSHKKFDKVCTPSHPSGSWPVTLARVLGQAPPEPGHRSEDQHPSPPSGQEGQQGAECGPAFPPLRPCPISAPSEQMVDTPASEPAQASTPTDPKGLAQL
From the text: as §1, §2, §3

P2X2 N300S = target: T3, P2X2 N300S (Homo sapiens, UniProt Q9UBL9, N300S); experiment: Site-saturation screen of ligand-binding domain with ATP, N300S; conditions: 500 μM ATP, ± sd
T3 construct: expressed in transfected cells; host or cells: S. cerevisiae BY4741 background
T3 sequence (Q9UBL9 whole entry N300S, the tested form may be a part): as the sequence (Q9UBL9 whole entry F303M, the tested form may be a part) above, with N300S, M303F counted along it
From the text: as §1, §2, §3

P2X2 A304V = target: T4, P2X2 A304V (Homo sapiens, UniProt Q9UBL9, A304V); experiment: Site-saturation screen of ligand-binding domain with ATP, A304V; conditions: 500 μM ATP, ± sd
T4 construct: expressed in transfected cells; host or cells: Saccharomyces cerevisiae BY4741 derivative, genome-integrated, galactose-inducible
T4 sequence (Q9UBL9 whole entry A304V, the tested form may be a part): as the sequence (Q9UBL9 whole entry F303M, the tested form may be a part) above, with M303F, A304V counted along it
From the text: as §1, §2, §3

P2X2 Y299F = target: T5, P2X2 Y299F (Homo sapiens, UniProt Q9UBL9, Y299F); experiment: Site-saturation screen of ligand-binding domain with ATP, Y299F; conditions: 500 μM ATP, ± sd
T5 construct: expressed in transfected cells; host or cells: S. cerevisiae BY4741 background
T5 sequence (Q9UBL9 whole entry Y299F, the tested form may be a part): as the sequence (Q9UBL9 whole entry F303M, the tested form may be a part) above, with Y299F, M303F counted along it
From the text: as §1, §2, §3

P2X2 F303Y = target: T6, P2X2 F303Y (Homo sapiens, UniProt Q9UBL9, F303Y); experiment: Fast GCaMP-mScarletI assay in yeast, P2X2 F303Y; conditions: site-saturation screen, 500 μM ATP, ± sd
T6 construct: expressed in transfected cells; host or cells: S. cerevisiae BY4741 background
T6 sequence (Q9UBL9 1-471 F303Y): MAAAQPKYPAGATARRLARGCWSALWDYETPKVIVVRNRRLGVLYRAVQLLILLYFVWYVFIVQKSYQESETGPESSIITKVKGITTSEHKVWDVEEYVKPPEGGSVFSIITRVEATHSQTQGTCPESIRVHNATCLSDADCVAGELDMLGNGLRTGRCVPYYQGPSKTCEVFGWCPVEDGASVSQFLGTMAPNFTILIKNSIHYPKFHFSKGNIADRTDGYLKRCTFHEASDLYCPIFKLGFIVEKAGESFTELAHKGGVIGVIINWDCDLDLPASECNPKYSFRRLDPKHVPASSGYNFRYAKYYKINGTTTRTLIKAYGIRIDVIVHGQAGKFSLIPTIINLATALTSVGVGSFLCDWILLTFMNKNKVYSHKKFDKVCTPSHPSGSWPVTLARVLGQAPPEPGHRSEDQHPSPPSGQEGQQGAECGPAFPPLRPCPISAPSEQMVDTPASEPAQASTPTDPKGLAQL

[1] = target: T7, P2X2 G353 threonine substitution (G353T) (Homo sapiens, UniProt Q9UBL9, G353T); experiment: Site-saturation screen, fast kinetic assay in yeast, G353 threonine; conditions: 500 μM ATP, ΔF/ΔT normalized to WT
T7 construct: expressed in transfected cells; host or cells: S. cerevisiae BY4741 background
T7 sequence (Q9UBL9 whole entry G353T): as the sequence (Q9UBL9 whole entry F303M, the tested form may be a part) above, with M303F, G353T counted along it
Procedure: Figure 2 P2X2 SNP testing.A, homology model of P2X2 with the clinically implicated SNPs highlighted. V60 is highlighted in magenta and G353 is highlighted in dark blue. Lines indicate the positions of the mutations on each of the three monomers. B, zoomed view of the transmembrane region from the purple box in (A). V60 is magenta and G353 is dark blue. The structure is rotated 60° on the right image. C, screening data from site-saturation of the V60 residue in saturating ATP concentration (500 μM f.c.) using the fast kinetic assay. Signal onset values (ΔF/ΔT) are normalized to values from the WT receptor. […] Each of 2 to 3 replicates is represented as a single point. […]
GCaMP assays were performed as follows. […] Cells were loaded onto a black, clear bottom microplate and imaged on a FlexStation3 plate reader. […] Fluorescence was measured with an excitation at 485 nm, and emission 525 nm. […] For strains with mScarlet, fluorescence was read with excitation 570 nm/emission 610 nm. Slopes were calculated from the last 6 points of measurement and were normalized to the positive control samples. Any replicate in which the mScarlet value was measured to be over 2 standard deviations less than the mean for that set was discarded from further analysis.

T1 sequence (Q9UBL9 whole entry F303L, the tested form may be a part): as the sequence (Q9UBL9 whole entry F303M, the tested form may be a part) above, with M303L counted along it

Nc1ncnc2c1ncn2[C@@H]1O[C@H](COP(=O)(O)OP(=O)(O)OP(=O)(O)O)[C@@H](O)[C@H]1O [ATP]
signal, % of WT signaling (P2X2 F303L): 108 ± 89%
signal, % of WT signaling (P2X2 F303M): 71 ± 14%
signal, % of WT signaling (P2X2 N300S): 151 ± 16%
signal, % of WT signaling (P2X2 A304V): 32 ± 2.1%
signal relative to WT (P2X2 Y299F): 21 ± 12%
signal, % of WT signaling (P2X2 F303Y): 113 ± 45%
signaling, % of WT activity [1]: 50%

Source: PMC11063903, “Engineering a human P2X2 receptor with altered ligand selectivity in yeast” (The Journal of Biological Chemistry, 2024)
